Reference: patent publication US8609635B2, “Fused tricyclic silyl compounds and methods of use thereof for the treatment of viral diseases” (priority 2010, dated 2013)

Test system: HCV replicon gt1a_H77
Test: Cell-based HCV replicon assay (TaqMan), genotype 1a (H77)
Settings: Hepatitis C virus, 72 h, replicon 1a (H77); replicon RNA by TaqMan, day 3
Method in brief: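 Replicon cells seeded at 5000 cells/well with compound (10 serial 2-fold dilutions from 250 μM to 1 μM top dose; 0.5% DMSO, 5% FBS) and lysed on day 3. Replicon RNA quantified by multiplex TaqMan RT-PCR (NS5B amplicon, GAPDH control); ΔCT versus concentration fitted to sigmoid dose-response. Chimeras carry patient-isolate NS5A.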

COC(=O)N[C@H](C(=O)N1CC(F)(F)C[C@H]1c1ncc(-c2ccc(-c3ccc4c(ccc5nc([C@@H]6C[Si](C)(C)CN6C(=O)[C@@H](NC(=O)OC)C(C)C)[nH]c54)c3)cc2)[nH]1)C(C)C [Compound 56]
EC50: 0.016 nM
